pIC50, pKd: −log10 of the molar value. Counter-ions that a name gives are not always drawn.
target: T1, human PDE4D (Homo sapiens, UniProt Q08499); assay: Measurement of PDE4D activity and determination of IC50 (scintillation bead assay, 3H-cAMP); type: biochemical; conditions: PDE4D inhibitor
T1 construct: The cloning of catalytic domains of human PDE4D as well as the expression and purification of the PDE catalytic domains; made in house
Description: The half maximal inhibitory concentration (IC50) is a measure of the effectiveness of a compound in inhibiting biological or biochemical function. Concentration-response plots are used to determine the effects of an inhibitor on an enzymatic reaction.
Measurement of phosphodiesterase activity takes advantage of the selective binding of 5-AMP or 5-GMP (and not cAMP or cGMP) to yttrium silicate beads with embedded scintillant. 0.1-1 nM PDE was incubated with 50 nM 3H-cAMP or 70 nM 3H-cGMP (Amersham, 5-60 Ci/mmol) in 50 mM Tris (pH 7.5), 8.3 mM MgCl2, 1.7 mM EGTA, and 0.01% BSA at 30 C for 30 min in 384-well assay plates. The assay was terminated by adding one-third volume of 5 mg/ml yttrium silicate beads in 18 mM ZnAcetate/ZnSO4 solution (3:1). A minimum of 30 min after mixing and centrifuging the reaction, hydrolysis was quantified by reading in a scintillation counter (Trilux, […] Wallac).

T1 sequence (Q08499 386-715 limits assumed): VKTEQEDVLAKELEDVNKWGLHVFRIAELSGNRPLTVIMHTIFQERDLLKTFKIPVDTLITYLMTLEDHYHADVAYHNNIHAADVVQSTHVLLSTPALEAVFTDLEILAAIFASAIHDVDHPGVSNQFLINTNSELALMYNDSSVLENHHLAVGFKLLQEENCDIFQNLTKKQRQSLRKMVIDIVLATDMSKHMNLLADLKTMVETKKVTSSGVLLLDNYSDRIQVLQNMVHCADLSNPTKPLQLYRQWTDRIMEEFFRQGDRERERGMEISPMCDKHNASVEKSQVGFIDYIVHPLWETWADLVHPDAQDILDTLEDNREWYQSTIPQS

Row | Compound | pIC50
1 | CCOc1ccc(-c2nc(-c3cccc(C(=O)O)n3)cs2)cc1OCC [Tetomilast, 6-[2-(3,4-diethoxyphenyl)-1,3-thiazol-4-yl]pyridine-2-carboxylic acid] | 7.15
2 | O=C(Nc1c(Cl)c[n+]([O-])cc1Cl)c1ccc(OC(F)F)c2oc3ccncc3c12 [Revamilast] | 8.57
3 | Tolafentrine | 7.52
4 | Cc1c[n+]([O-])ccc1CC(c1ccc(C(O)(C(F)(F)F)C(F)(F)F)cc1)c1ccc(OC(F)F)c(OC(F)F)c1 [L-826,141, 4-[2-[3,4-Bis(difluoromethoxy)phenyl]-2-[4-[2,2,2-trifluoro-1-hydroxy-1-(trifluoro-methyl)ethyl]phenyl]ethyl]-3-methylpyridine N-oxide] | 8.62
5 | CCNc1ncn(Cc2ccc(OC)c(OC3CCCC3)c2)c2nc(C(C)C)nc1-2 [V11294, -[(3-cyclopentyloxy-4-methoxyphenyl)methyl]-N-ethyl-8-propan-2-ylpurin-6-amine:] | 6.70
6 | O=C(Nc1c(Cl)cncc1Cl)C(=O)c1cn(Cc2ccc(F)cc2)c2ncccc12 [Ronomilast] | 8.46
7 | CS(=O)(=O)Nc1ccc2oc3c(OC(F)F)ccc(C(=O)Nc4c(Cl)cncc4Cl)c3c2c1 [oglemilast] | 6.78
8 | CCC1C(C)=NN=C(c2ccc(OC)c(OC)c2)c2cc(OC)c(OC)cc21 (centres unmarked) [Tofisopam, 1-(3,4-dimethoxyphenyl)-5-ethyl-7,8-dimethoxy-4-methyl-5H-2,3-benzodiazepine] | 6.05
9 | COc1ccc(/C(C)=N/OC(N)=O)cc1OC1CCCC1 [Filaminast] | 6.00
10 | COc1ccc([C@H](Cc2ccncc2)c2ccccc2)cc1OC1CCCC1 [CDP-840, 4-[(2R)-2-[3-(Cyclopentyloxy)-4-methoxyphenyl]-2-phenylethyl]-pyridine hydrochloride] | 8.68
11 | CCCOc1cc([C@]2(C)CNC(=O)O2)ccc1OC [Daxalipram] | 5.96

tested on: rats with inflammatory pain induced by injection of an adjuvant (CFA); assay: not given; conditions: background statement on the positive control; cited from earlier work

Row | Compound | efficacy in the CFA model
12 | COc1ccc2c(c1)c(CC(=O)O)c(C)n2C(=O)c1ccc(Cl)cc1 [indomethacin] | demonstrated efficacy

target: T2, FRK (Homo sapiens, UniProt P42685); assay: Binding affinity (Kd), KinomeScan kinase binding assay; conditions: FRK inhibitor
T2 construct: either the full length protein or with a kinase construct that spans the catalytic domain
Source text: The assay can be performed with either the full length protein or with a kinase construct that spans the catalytic domain.

T2 sequence (P42685 whole entry, the tested form may be a part): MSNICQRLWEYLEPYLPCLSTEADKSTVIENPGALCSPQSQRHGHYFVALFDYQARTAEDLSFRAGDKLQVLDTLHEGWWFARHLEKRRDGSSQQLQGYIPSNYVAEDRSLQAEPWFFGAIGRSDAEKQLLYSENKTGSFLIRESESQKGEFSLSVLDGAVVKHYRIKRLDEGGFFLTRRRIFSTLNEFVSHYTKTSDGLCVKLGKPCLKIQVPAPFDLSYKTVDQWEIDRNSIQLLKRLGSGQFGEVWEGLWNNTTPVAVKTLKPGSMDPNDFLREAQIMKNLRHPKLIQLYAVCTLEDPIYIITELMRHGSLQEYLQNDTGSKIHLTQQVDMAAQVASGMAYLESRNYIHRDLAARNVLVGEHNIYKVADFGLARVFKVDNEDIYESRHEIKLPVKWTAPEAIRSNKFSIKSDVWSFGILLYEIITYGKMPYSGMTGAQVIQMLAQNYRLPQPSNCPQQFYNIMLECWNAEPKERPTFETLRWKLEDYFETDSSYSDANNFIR

Row | Compound | pKd
13 | CCOc1cc2ncc(C#N)c(Nc3ccc(F)c(Cl)c3)c2cc1NC(=O)/C=C/CN(C)C [Pelitinib] | 6.72

tested on: rats with peripheral mononeuropathy induced by loose ligation of the sciatic nerve; assay: not given; conditions: background statement; cited from earlier work

Row | Compound | ameliorating symptoms of pain in the CCl model
14 | CC(C)C[C@H](CN)CC(=O)O [Pregabalin] | effective at ameliorating symptoms of pain
